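All cell lines were grown in 96-well plates and treated with compound for 48 hours. GI50 = concentration required for 50% inhibition of growth.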 Active and inactive are the calls of the source. No stated cut-off is given here; in the data, active = GI50 up to about 1.1 µM and inactive = higher.
Key:
Test in all cases: DTP human tumour cell line panel, 48 h
NCI-H460 = system: NCI-H460
ACHN = system: ACHN
OVCAR-3 = system: OVCAR-3
T47D = system: T47D
CCRF-CEM = system: CCRF-CEM
MCF7 = system: MCF7
OVCAR-8 = system: OVCAR-8
SR = system: SR
CAKI-1 = system: CAKI-1
K562 = system: K562
UACC-62 = system: UACC-62
NCI-H226 = system: NCI-H226
HL-60 = system: HL-60
TK-10 = system: TK-10
KM12 = system: KM12
SNB-75 = system: SNB-75
OVCAR-4 = system: OVCAR-4
HCT-116 = system: HCT-116
Hs-578T = system: Hs-578T
IGROV-1 = system: IGROV-1
PC-3 = system: PC-3
U-251 = system: U-251
A549 = system: A549
MOLT-4 = system: MOLT-4
HCT-15 = system: HCT-15
OVCAR-5 = system: OVCAR-5
RXF 393 = system: RXF 393
SK-MEL-5 = system: SK-MEL-5
SNB-19 = system: SNB-19
MDA-N = system: MDA-N
HOP-92 = system: HOP-92
UO-31 = system: UO-31
SN12C = system: SN12C
SK-MEL-28 = system: SK-MEL-28
Malme-3M = system: Malme-3M
A498 = system: A498
HCC 2998 = system: HCC 2998
MDA-MB-435 = system: MDA-MB-435
M14 = system: M14
NCI/ADR-RES = system: NCI/ADR-RES
COLO 205 = system: COLO 205
SF-295 = system: SF-295
NCI-H522 = system: NCI-H522
UACC-257 = system: UACC-257
SK-OV-3 = system: SK-OV-3
LOX IMVI = system: LOX IMVI
MDA-MB-231 = system: MDA-MB-231
SF-268 = system: SF-268
SF-539 = system: SF-539
BT-549 = system: BT-549
SK-MEL-2 = system: SK-MEL-2
DU-145 = system: DU-145
NCI-H23 = system: NCI-H23
EKVX = system: EKVX
RPMI-8226 = system: RPMI-8226
SW-620 = system: SW-620
HT-29 = system: HT-29
HOP-62 = system: HOP-62
786-0 = system: 786-0

Measured: GI50

O=[N+]([O-])c1nccn1CCCNc1ccnc2cc(Cl)ccc12
inactive: NCI-H460 3.12 µM | ACHN 4.75 µM | OVCAR-3 1.77 µM | T47D 7.67 µM | CCRF-CEM 5.38 µM | MCF7 50 µM | OVCAR-8 7.4 µM | SR 2.81 µM | CAKI-1 > 5.93 µM | K562 4.24 µM | UACC-62 6.21 µM | NCI-H226 3.27 µM | HL-60 5 µM | TK-10 3.53 µM | KM12 5.37 µM | SNB-75 6.62 µM | OVCAR-4 6.41 µM | HCT-116 3.47 µM | Hs-578T > 100 µM | IGROV-1 7.71 µM | PC-3 5.09 µM | U-251 6.82 µM | A549 5.43 µM | MOLT-4 3.64 µM | OVCAR-5 14.4 µM | RXF 393 4.26 µM | SK-MEL-5 2.29 µM | SNB-19 4.06 µM | MDA-N 7.29 µM | HOP-92 > 7.98 µM | UO-31 5.4 µM | SN12C 3.3 µM | SK-MEL-28 > 9.86 µM | Malme-3M 29 µM | A498 5.08 µM | HCC 2998 18.2 µM | MDA-MB-435 6.71 µM | M14 4.5 µM | NCI/ADR-RES > 96.6 µM | COLO 205 3.05 µM | SF-295 3.8 µM | NCI-H522 2.25 µM | UACC-257 3.44 µM | SK-OV-3 6.49 µM | LOX IMVI 4.63 µM | MDA-MB-231 6.59 µM | SF-268 7.48 µM | SF-539 5.48 µM | BT-549 8.69 µM | SK-MEL-2 4.29 µM | DU-145 > 7.74 µM | NCI-H23 5.52 µM | EKVX 1.93 µM | RPMI-8226 4.34 µM | SW-620 4.23 µM | HT-29 3.94 µM | HOP-62 25.5 µM | 786-0 3.76 µM
19.8 µM: HCT-15

CN(C)c1cccc(/C=C(\C#N)c2ccccc2)c1
active: NCI-H460 0.527 µM | OVCAR-3 0.157 µM | T47D 0.525 µM | CCRF-CEM 0.794 µM | MCF7 0.218 µM | OVCAR-8 1.01 µM | SR 0.0879 µM | CAKI-1 0.771 µM | K562 0.0927 µM | UACC-62 0.792 µM | HL-60 0.0865 µM | TK-10 0.944 µM | KM12 0.1 µM | HCT-116 0.396 µM | Hs-578T 0.723 µM | IGROV-1 1.11 µM | PC-3 1.12 µM | U-251 0.687 µM | MOLT-4 0.493 µM | RXF 393 0.706 µM | SK-MEL-5 0.371 µM | MDA-N 0.0451 µM | HCC 2998 0.565 µM | MDA-MB-435 0.0478 µM | M14 0.277 µM | NCI/ADR-RES 0.257 µM | COLO 205 0.533 µM | SF-295 0.574 µM | NCI-H522 0.273 µM | UACC-257 1.01 µM | SK-OV-3 1.11 µM | LOX IMVI 0.406 µM | MDA-MB-231 1.11 µM | SF-539 0.587 µM | SK-MEL-2 0.316 µM | RPMI-8226 0.579 µM | SW-620 0.316 µM | HT-29 0.213 µM | HOP-62 0.164 µM
0.219 µM: HCT-15
inactive: ACHN 14.4 µM | NCI-H226 2.55 µM | SNB-75 1.39 µM | OVCAR-4 17.1 µM | A549 2.61 µM | OVCAR-5 3.72 µM | SNB-19 1.72 µM | HOP-92 2.94 µM | UO-31 5.46 µM | SN12C 1.15 µM | SK-MEL-28 7.33 µM | Malme-3M 1.95 µM | A498 2.11 µM | SF-268 8.77 µM | BT-549 21.3 µM | DU-145 1.65 µM | NCI-H23 1.44 µM | EKVX 2.14 µM | 786-0 2.21 µM

CC1CNC(c2cccc(-c3nc(-c4cccc(C5=NC(C)CN5)c4)nc(N(C)C)n3)c2)=N1 (stereo unspecified)
8.34 µM: HCT-15
active: CCRF-CEM 0.587 µM | MCF7 0.78 µM | SR 0.45 µM | K562 0.682 µM | OVCAR-4 0.771 µM | HCT-116 0.491 µM | PC-3 0.671 µM | U-251 0.653 µM | MOLT-4 0.373 µM | SNB-19 0.752 µM | SN12C 0.948 µM | NCI-H522 0.757 µM | SF-539 0.454 µM | SW-620 0.721 µM | HT-29 0.895 µM | HOP-62 1.08 µM
inactive: NCI-H460 1.94 µM | ACHN 3.12 µM | OVCAR-3 1.53 µM | T47D 2.5 µM | OVCAR-8 2.15 µM | CAKI-1 18.1 µM | UACC-62 1.82 µM | NCI-H226 1.9 µM | HL-60 2.02 µM | TK-10 2.78 µM | KM12 1.67 µM | SNB-75 1.91 µM | Hs-578T 2.74 µM | IGROV-1 3.28 µM | A549 2.69 µM | OVCAR-5 2.57 µM | RXF 393 3.21 µM | SK-MEL-5 2.59 µM | MDA-N 1.52 µM | HOP-92 3.87 µM | UO-31 3.77 µM | SK-MEL-28 3.13 µM | Malme-3M 3.87 µM | A498 2.05 µM | HCC 2998 1.13 µM | MDA-MB-435 1.19 µM | M14 3.5 µM | NCI/ADR-RES 16.5 µM | COLO 205 1.2 µM | SF-295 3.61 µM | UACC-257 3.16 µM | SK-OV-3 1.58 µM | LOX IMVI 1.12 µM | MDA-MB-231 1.32 µM | SF-268 2.06 µM | BT-549 3.19 µM | SK-MEL-2 2.02 µM | DU-145 2.09 µM | NCI-H23 2.14 µM | EKVX 2.23 µM | RPMI-8226 2.75 µM | 786-0 1.53 µM

CO[C@H]1C[C@H](O[C@H]2CC[C@@]3(C)[C@H](CC[C@@H]4[C@@H]3CC[C@]3(C)[C@@H](C5=CC(=O)OC5)CC[C@]43O)C2)O[C@H](C)[C@H]1O
< 0.01 µM: HCT-15
active: NCI-H460 < 0.01 µM | ACHN < 0.01 µM | OVCAR-3 < 0.01 µM | T47D < 0.01 µM | CCRF-CEM < 0.01 µM | MCF7 < 0.01 µM | OVCAR-8 < 0.01 µM | SR < 0.01 µM | CAKI-1 < 0.01 µM | K562 < 0.01 µM | UACC-62 < 0.0125 µM | NCI-H226 < 0.0184 µM | HL-60 < 0.01 µM | TK-10 < 0.0246 µM | KM12 < 0.011 µM | SNB-75 < 0.0134 µM | OVCAR-4 < 0.01 µM | HCT-116 < 0.01 µM | Hs-578T < 0.01 µM | IGROV-1 < 0.01 µM | PC-3 < 0.01 µM | U-251 < 0.01 µM | A549 < 0.01 µM | MOLT-4 < 0.01 µM | OVCAR-5 < 0.0149 µM | RXF 393 < 0.01 µM | SK-MEL-5 < 0.01 µM | SNB-19 0.0158 µM | MDA-N < 0.01 µM | HOP-92 < 0.01 µM | UO-31 < 0.01 µM | SN12C < 0.01 µM | SK-MEL-28 0.024 µM | Malme-3M < 0.01 µM | A498 0.0113 µM | HCC 2998 0.015 µM | MDA-MB-435 < 0.0111 µM | M14 0.0168 µM | NCI/ADR-RES < 0.01 µM | COLO 205 0.0695 µM | SF-295 < 0.01 µM | NCI-H522 < 0.01 µM | UACC-257 < 0.0137 µM | SK-OV-3 < 0.0113 µM | LOX IMVI < 0.01 µM | MDA-MB-231 0.0498 µM | SF-268 < 0.01 µM | SF-539 < 0.01 µM | BT-549 < 0.01 µM | SK-MEL-2 0.0151 µM | DU-145 < 0.01 µM | NCI-H23 < 0.01 µM | EKVX < 0.01 µM | RPMI-8226 < 0.01 µM | SW-620 < 0.01 µM | HT-29 < 0.01 µM | HOP-62 < 0.01 µM | 786-0 < 0.01 µM
